Data on 17 molecules can be found in PubChem BioAssay (NCI).

What all share (assay): growth of human tumour cells (NCI), 48 h
Test [1] deals with A549 NSCLC.
For test [2], the system named is TK-10 renal.
Test [3] deals with HCT-116 colon.
The subject of test [4] is RXF 393 renal.
The test system of test [5] is HCT-15 colon.
The test system of test [6] is NCI-H226 lung.

“And” between values parts separate entries of the source, which are not always exact repeats. Identical values can stand only once.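 These data come from cells grown in 96-well plates and exposed to compound for 48 hours at five concentrations. TGI: concentration producing complete growth inhibition.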

As for `CCOC(=O)c1nc2cc(C(F)(F)F)ccc2nc1Nc1ccc(Cl)c(Cl)c1`, the TGI in test [1], in test [2], in test [3], in test [4], in test [5] and in test [6] was over 100 µM in each case.

In the case of `Clc1nc2c(-c3cccs3)ncnc2n1Cc1ccccc1`, the TGI in test [1] is over 100 µM; in test [2], 61.5 µM; in test [3] it was over 100 µM; in test [4], 51.2 µM; in test [5], over 100 µM; in test [6], over 100 µM.

Consider `O=C1OC(CN2CCN(c3ccccc3)CC2)CN1C(=S)Nc1ccccc1` (configuration not stated), for which the TGI in test [1], in test [2], in test [3], in test [4], in test [5] and in test [6] was over 100 µM each time.

For `CN(/N=C\c1ccc2ccccc2c1)C1=NCCCCN1`, the TGI in test [1] is 58.3 µM; in test [2] it was 56.5 µM; in test [3] it was over 100 µM; in test [4] it was 42.6 µM; in test [5], over 100 µM; in test [6], over 100 µM.

As to `NNC(=O)c1n[nH]nc1SSc1n[nH]nc1C(=O)NN`, the TGI in test [1], in test [2], in test [3], in test [4], in test [5] and in test [6] was over 100 µM in each case.

`O=C(C1OC1c1ccc([N+](=O)[O-])cc1)C12CC3CC(CC(C3)C1)C2` (configuration not stated): the TGI in test [1] is 52.7 µM; in test [2] it was 33.3 µM; in test [3], 22 µM; in test [4] it was 46.4 µM; in test [5], 31.5 µM; in test [6], 39.4 µM.

Turning to `C=C(Cl)C(Cl)(CBr)CCC(Cl)C(C)(C)Cl` (configuration not stated), the TGI is 12.7 µM in test [1]; 2.71 µM in test [2]; 2.02 µM in test [3]; 10.9 µM in test [4]; 14.7 µM in test [5]; 61 µM in test [6].

`CC(C)(C)C=C=C(C(C)(C)C)P(=O)(O)O`: the TGI in test [1], in test [2], in test [3], in test [4], in test [5] and in test [6] was over 100 µM throughout.

Turning to `CC/C(Cl)=N\OC(=O)Nc1ccc(C#N)cc1`, the TGI in test [1] is 35.7 µM; in test [2], 30.1 µM; in test [3] it was 28.1 µM; in test [4], 21.4 µM; in test [5], 21.7 µM; in test [6], 30.9 µM.

With `COC/C=C\[C@@]1(O)CCCC[C@@H]1CC(OC)OC`, the TGI in test [1] was over 100 µM; in test [2], over 100 µM; in test [3] it was over 62.7 µM; in test [4] it was over 92.1 µM; in test [5], over 100 µM; in test [6], over 100 µM.

As to `CC(C)(C)OC(=O)NC(Cc1ccc([N+](=O)[O-])cc1)C(=O)NC(CCCCNC(=O)OCc1ccccc1)C(=O)ON1C(=O)CCC1=O` (configuration not stated), the TGI in test [1], in test [2], in test [3], in test [4], in test [5] and in test [6] was over 100 µM throughout.

Regarding `Cc1ccc(C2=Nc3c(N)nc(N)nc3NC(c3ccccc3)C2)cc1` (configuration not stated), the TGI in test [1] was 26.3 µM and 23.6 µM; in test [2] it was 27.6 µM and 40.2 µM; in test [3], 17.5 µM and 17.6 µM; in test [4], 25.2 µM and 21.3 µM; in test [5], 15.9 µM and 12 µM; in test [6], 29.3 µM and 36.7 µM.

Consider `O=C(O)CCC1(c2ccccc2)NC(=O)NC1=O` (configuration not stated), for which the TGI in test [1], in test [2], in test [3], in test [4], in test [5] and in test [6] was over 100 µM throughout.

Take `O=C(NCc1ccccc1)c1cnc(Cl)cn1`: the TGI in test [1] is over 100 µM; in test [2], over 100 µM; in test [3], over 100 µM; in test [4], over 100 µM; in test [5], 82.4 µM; in test [6], over 100 µM.

For `CC(C)(C)/C(O)=C\c1nc2cc(C(F)(F)F)ccc2[nH]c1=O`, the TGI in test [1], in test [2], in test [3], in test [4], in test [5] and in test [6] was over 100 µM throughout.

Turning to `Cn1c(=O)n(CC(Br)CBr)c(=O)n(CC(Br)CBr)c1=O` (configuration not stated), the TGI in test [1] is over 100 µM; in test [2], over 100 µM; in test [3], 79.3 µM; in test [4], over 100 µM; in test [5] it was over 100 µM; in test [6] it was 58.9 µM.

Turning to `COC(=O)C1=C(O)C(C(=O)OC)[C@]2(O)[C@H](C(=O)OC)[C@H]1C[C@@H](c1ccc(OC)cc1)[C@H]2C(=O)OC` (some centres not stated), the TGI was 62.8 µM in test [1]; over 100 µM in test [2]; 38.5 µM in test [3]; 42 µM in test [4]; over 100 µM in test [5]; over 100 µM in test [6].
